In the supplement of paper PMC13380429:

Legend:
Details in all cases: 72 h
[1] = test system: Caco-2; test: cell viability relative to DMSO; higher = less toxic
[2] = test system: Calu-3; test: as above
[3] = test system: HepG2; test: as above
[4] = test system: U2OS; test: as above
[5] = test system: Vero E6; test: as above
[6] = test system: Caco-2; test: relative viability EC50 (midpoint between 100% and the lowest measured viability); higher = less toxic
[7] = test system: Calu-3; test: as above
[8] = test system: HepG2; test: as above
[9] = test system: U2OS; test: as above
[10] = test system: Vero E6; test: as above
[11] = test system: Caco-2; test: drug sensitivity score (DSS) for viability; higher = more toxic; extreme values may be limits of the assay
[12] = test system: Calu-3; test: as above
[13] = test system: HepG2; test: as above
[14] = test system: U2OS; test: as above
[15] = test system: Vero E6; test: as above

Structure (SMILES) | cell viability ([1]; 1 nM) | cell viability ([1]; 10 nM) | cell viability ([1]; 100 nM) | cell viability ([1]; 1000 nM) | cell viability ([1]; 10000 nM) | cell viability ([2]; 1 nM) | cell viability ([2]; 10 nM) | cell viability ([2]; 100 nM) | cell viability ([2]; 1000 nM) | cell viability ([2]; 10000 nM) | cell viability ([3]; 1 nM) | cell viability ([3]; 10 nM) | cell viability ([3]; 100 nM) | cell viability ([3]; 1000 nM) | cell viability ([3]; 10000 nM) | cell viability ([4]; 1 nM) | cell viability ([4]; 10 nM) | cell viability ([4]; 100 nM) | cell viability ([4]; 1000 nM) | cell viability ([4]; 10000 nM) | cell viability ([5]; 1 nM) | cell viability ([5]; 10 nM) | cell viability ([5]; 100 nM) | cell viability ([5]; 1000 nM) | cell viability ([5]; 10000 nM) | relative viability EC50 [6] | relative viability EC50 [7] | relative viability EC50 [8] | relative viability EC50 [9] | relative viability EC50 [10] | drug sensitivity score [11] | drug sensitivity score [12] | drug sensitivity score [13] | drug sensitivity score [14] | drug sensitivity score [15]
CC(=O)OCC1=C(C(=O)O)N2C(=O)[C@@H](N)[C@H]2SC1 [7-aminocephalosporanic-acid] | 101% | 106% | 102% | 98.7% | 100% | 116% | 102% | 97.5% | 99.5% | 115% | 105% | 117% | 109% | 115% | 99.7% | 101% | 99% | 100% | 97.8% | 101% | 97.5% | 100% | 96.4% | 95.5% | 98.8% | > 10 µM | > 10 µM | > 10 µM | > 10 µM | > 10 µM | 0 | 0 | 0 | 0 | 0
CSc1ccc(C(=O)/C=C/c2cc(C)c(OC(C)(C)C(=O)O)c(C)c2)cc1 [elafibranor] | 99.5% | 92.5% | 103% | 90.5% | 84.6% | 101% | 97% | 100% | 108% | 114% | 101% | 108% | 93.5% | 99.1% | 96.3% | 99.7% | 94% | 97.7% | 98.1% | 94.3% | 90.8% | 97% | 89.5% | 91.1% | 98.5% | > 10 µM | > 10 µM | > 10 µM | > 10 µM | > 10 µM | 1 | 0 | 0 | 0 | 0
CC(C)(C)c1ccc(C(O)CCCN2CCC(C(O)(c3ccccc3)c3ccccc3)CC2)cc1 (stereo not given) [terfenadine] | 77.3% | 100% | 76.3% | 101% | 80.2% | 97.6% | 115% | 97.3% | 104% | 106% | 108% | 117% | 103% | 96.9% | 99.8% | 98.1% | 101% | 96.5% | 99.7% | 97.8% | 107% | 97.3% | 109% | 101% | 100% | > 10 µM | > 10 µM | > 10 µM | > 10 µM | > 10 µM | 2.4 | 0 | 0 | 0 | 0
Fc1ccc2c(CCNCc3cccc(OCC(F)(F)C(F)F)c3)c[nH]c2c1 [idalopirdine] | 96.3% | 97.5% | 91.5% | 87.1% | 109% | 90.3% | 102% | 91.4% | 101% | 99.7% | 97.5% | 93.7% | 99.2% | 94.8% | 88.2% | 95.3% | 97% | 99.7% | 95.4% | 96.7% | 101% | 95.2% | 98.7% | 95.2% | 84.9% | > 10 µM | > 10 µM | > 10 µM | > 10 µM | > 10 µM | 0 | 0 | 0 | 0 | 0.5
C[C@@H](O)[C@H]1C(=O)N2C(C(=O)O)=C(S[C@@H]3CN[C@H](C(=O)Nc4cccc(C(=O)O)c4)C3)[C@H](C)[C@H]12 [ertapenem] | 101% | 114% | 84.3% | 96.3% | 85.9% | 98.2% | 99.7% | 94.4% | 89.7% | 97.8% | 90.9% | 97.4% | 93.2% | 103% | 91.9% | 94.7% | 98.9% | 96.8% | 101% | 99.5% | 106% | 98.3% | 106% | 100% | 103% | > 10 µM | > 10 µM | > 10 µM | > 10 µM | > 10 µM | 2.7 | 0 | 0 | 0 | 0
C[N+](C)(C)CC(O)CC(=O)[O-] (stereo not given) [carnitine-(D/L)] | 105% | 77.6% | 100% | 81.8% | 89.7% | 96.9% | 102% | 109% | 99.9% | 94.3% | 98.1% | 82.5% | 92.1% | 86.3% | 80.9% | 94.1% | 94.4% | 87.2% | 80.6% | 95.9% | 100% | 101% | 91% | 106% | 104% | > 10 µM | > 10 µM | > 10 µM | > 10 µM | > 10 µM | 0.7 | 0 | 2.2 | 0 | 0
